“And” between values parts separate entries of the source, which are not always exact repeats. Equal values may be shown once.
Assay: xn = mol fraction of the nth substance listed
Conditions: Gas, Frequency=2 MHz, Pulse-echo method

CCC [propane] + O=C=O
Conditions	speed of sound
298.18 K, 100010 kPa, x2 = 0.9376	1076.7 m/s
298.18 K, 125020 kPa, x2 = 0.9376	1162.3 m/s
298.18 K, 149960 kPa, x2 = 0.9376	1236.7 m/s
298.18 K, 175000 kPa, x2 = 0.9376	1302.7 m/s
298.18 K, 200100 kPa, x2 = 0.9376	1364.5 m/s
323.09 K, 24930 kPa, x2 = 0.9683	534.6 m/s
323.09 K, 24940 kPa, x2 = 0.9683	534.8 m/s
323.09 K, 50140 kPa, x2 = 0.9683	752.6 m/s
323.09 K, 75000 kPa, x2 = 0.9683	890.2 m/s
323.09 K, 75070 kPa, x2 = 0.9683	897.6 m/s
323.09 K, 100590 kPa, x2 = 0.9683	1000.1 m/s
323.09 K, 125560 kPa, x2 = 0.9683	1088.7 m/s
323.09 K, 149970 kPa, x2 = 0.9683	1164.3 m/s
323.09 K, 175330 kPa, x2 = 0.9683	1234.8 m/s
323.09 K, 200000 kPa, x2 = 0.9683	1296.5 m/s
323.1 K, 30220 kPa, x2 = 0.9907	590.1 m/s
323.1 K, 30230 kPa, x2 = 0.9907	589.8 m/s
323.1 K, 49980 kPa, x2 = 0.9907	747 m/s
323.1 K, 75170 kPa, x2 = 0.9907	886.1 m/s
323.1 K, 100210 kPa, x2 = 0.9907	992.6 m/s
323.1 K, 124810 kPa, x2 = 0.9907	1080.5 m/s
323.1 K, 149980 kPa, x2 = 0.9907	1157.2 m/s
323.1 K, 174620 kPa, x2 = 0.9907	1224.1 m/s
323.1 K, 200340 kPa, x2 = 0.9907	1288.4 m/s
323.13 K, 50000 kPa, x2 = 0.9981	745.6 m/s
323.13 K, 50020 kPa, x2 = 0.9981	745.8 m/s
323.13 K, 75120 kPa, x2 = 0.9981	883.4 m/s
323.13 K, 100030 kPa, x2 = 0.9981	988.9 m/s
323.13 K, 124980 kPa, x2 = 0.9981	1076.8 m/s
323.13 K, 150000 kPa, x2 = 0.9981	1153.2 m/s
323.13 K, 175020 kPa, x2 = 0.9981	1220.9 m/s
323.13 K, 200000 kPa, x2 = 0.9981	1282.1 m/s
323.19 K, 15120 kPa, x2 = 0.9376	381.2 m/s
323.19 K, 15160 kPa, x2 = 0.9376	381.4 m/s
323.19 K, 25000 kPa, x2 = 0.9376	541.2 m/s
323.19 K, 50090 kPa, x2 = 0.9376	758.5 m/s
323.19 K, 75070 kPa, x2 = 0.9376	897.6 m/s
323.19 K, 100040 kPa, x2 = 0.9376	1005.2 m/s
323.19 K, 125050 kPa, x2 = 0.9376	1095.7 m/s
323.19 K, 150020 kPa, x2 = 0.9376	1173.9 m/s
323.19 K, 175000 kPa, x2 = 0.9376	1243.4 m/s
323.19 K, 200420 kPa, x2 = 0.9376	1307.5 m/s
348.09 K, 30390 kPa, x2 = 0.9683	504.8 m/s
348.09 K, 30400 kPa, x2 = 0.9683	504.8 m/s
348.09 K, 49950 kPa, x2 = 0.9981	667.1 m/s and 667.2 m/s
348.09 K, 50030 kPa, x2 = 0.9683	675.2 m/s
348.09 K, 50360 kPa, x2 = 0.9907	672.7 m/s
348.09 K, 50370 kPa, x2 = 0.9907	672.7 m/s
348.09 K, 75020 kPa, x2 = 0.9981	813.6 m/s
348.09 K, 75080 kPa, x2 = 0.9907	816.9 m/s
348.09 K, 75220 kPa, x2 = 0.9683	823 m/s
348.09 K, 99980 kPa, x2 = 0.9981	924.6 m/s
348.09 K, 100580 kPa, x2 = 0.9907	931.1 m/s
348.09 K, 100600 kPa, x2 = 0.9683	937.3 m/s
348.09 K, 124980 kPa, x2 = 0.9981	1016.6 m/s
348.09 K, 125530 kPa, x2 = 0.9683	1029 m/s
348.09 K, 125700 kPa, x2 = 0.9907	1023.2 m/s
348.09 K, 149990 kPa, x2 = 0.9981	1095.6 m/s
348.09 K, 150440 kPa, x2 = 0.9683	1109.4 m/s
348.09 K, 150600 kPa, x2 = 0.9907	1101.4 m/s
348.09 K, 174720 kPa, x2 = 0.9683	1178.6 m/s
348.09 K, 175000 kPa, x2 = 0.9981	1165.6 m/s
348.09 K, 175290 kPa, x2 = 0.9907	1171.4 m/s
348.09 K, 200000 kPa, x2 = 0.9981	1228.6 m/s
348.09 K, 200040 kPa, x2 = 0.9683	1243.8 m/s
348.09 K, 200720 kPa, x2 = 0.9907	1236.7 m/s
348.18 K, 25040 kPa, x2 = 0.9376	446.6 m/s
348.18 K, 25050 kPa, x2 = 0.9376	446.8 m/s
348.18 K, 50050 kPa, x2 = 0.9376	682.3 m/s
348.18 K, 75100 kPa, x2 = 0.9376	830.6 m/s
348.18 K, 100100 kPa, x2 = 0.9376	943.7 m/s
348.18 K, 125020 kPa, x2 = 0.9376	1037.1 m/s
348.18 K, 149940 kPa, x2 = 0.9376	1117.7 m/s
348.18 K, 174970 kPa, x2 = 0.9376	1189.8 m/s
348.18 K, 200000 kPa, x2 = 0.9376	1254.3 m/s
373.1 K, 74950 kPa, x2 = 0.9981	754.4 m/s
373.1 K, 74970 kPa, x2 = 0.9981	754.7 m/s
373.1 K, 100020 kPa, x2 = 0.9981	869.7 m/s
373.1 K, 125030 kPa, x2 = 0.9981	963.9 m/s
373.1 K, 150000 kPa, x2 = 0.9981	1044.4 m/s
373.1 K, 175000 kPa, x2 = 0.9981	1115.5 m/s
373.1 K, 200000 kPa, x2 = 0.9981	1179.3 m/s
373.12 K, 25050 kPa, x2 = 0.9376	384.7 m/s
373.12 K, 25060 kPa, x2 = 0.9376	385 m/s
373.12 K, 35140 kPa, x2 = 0.9683	488.3 m/s
373.12 K, 35170 kPa, x2 = 0.9683	488.8 m/s
373.12 K, 49890 kPa, x2 = 0.9376	618.8 m/s
373.12 K, 49950 kPa, x2 = 0.9683	611.6 m/s
373.12 K, 75070 kPa, x2 = 0.9683	764.5 m/s
373.12 K, 75090 kPa, x2 = 0.9376	772.6 m/s
373.12 K, 100000 kPa, x2 = 0.9376	889.4 m/s
373.12 K, 100300 kPa, x2 = 0.9683	881.3 m/s
373.12 K, 124970 kPa, x2 = 0.9376	985.6 m/s
373.12 K, 125160 kPa, x2 = 0.9683	976.5 m/s
373.12 K, 149930 kPa, x2 = 0.9376	1069 m/s
373.12 K, 150000 kPa, x2 = 0.9683	1057.9 m/s
373.12 K, 174970 kPa, x2 = 0.9376	1141.6 m/s
373.12 K, 175220 kPa, x2 = 0.9683	1131.5 m/s
373.12 K, 200010 kPa, x2 = 0.9683	1196.4 m/s
373.12 K, 200030 kPa, x2 = 0.9376	1208.7 m/s
373.13 K, 50050 kPa, x2 = 0.9907	607.3 m/s
373.13 K, 50070 kPa, x2 = 0.9907	607.5 m/s
373.13 K, 76000 kPa, x2 = 0.9907	763.8 m/s
373.13 K, 100270 kPa, x2 = 0.9907	874.4 m/s
373.13 K, 125410 kPa, x2 = 0.9907	970.3 m/s
373.13 K, 150430 kPa, x2 = 0.9907	1051.5 m/s
373.13 K, 174660 kPa, x2 = 0.9907	1121.2 m/s
373.13 K, 200020 kPa, x2 = 0.9907	1188.3 m/s
